Test results published in the supplement of paper PMC10307832.

How the values were obtained:
Experiment in all cases: relative viability (nuclei count vs DMSO), 5 days (fraction); higher = more cells survive
[1] = compound: C1CC(C1)(C(=O)O)C(=O)O.[NH2-].[NH2-].[Pt+2] [Carboplatin] + Cc1nc(NC(=O)N2CCC[C@H]2C(N)=O)sc1-c1ccnc(C(C)(C)C(F)(F)F)c1 [Alpelisib] (partner 2 µM)
Summary of the method: (§1)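 A single step with final 0.05% Triton X-100, 1% formaldehyde and 1 ug/ml Hoechst fixed the cells and stained nuclei 5 days after treatment. Lung cancer cell lines in 1536-well plates had been treated by pin tool the day after seeding with one drug alone or a fixed anchor-drug dose plus five library-drug doses (not always all listed) in √10 steps, and nuclei were counted on 4× images. Relative viability is the ratio of nuclei in treated wells to nuclei in vehicle wells, taken as the median of duplicate plates.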

[2] = compound: CC[C@H](C)N1C=C(C2=C(C=C(C=C21)C3=CN=C(C=C3)N4CCNCC4)C(=O)NCC5=C(C=C(NC5=O)C)C)C [GSK126] + CC(=O)Nc1cccc(-n2c(=O)n(C3CC3)c(=O)c3c(Nc4ccc(I)cc4F)n(C)c(=O)c(C)c32)c1 [Trametinib] (partner 0.02 µM)
Summary of the method: as §1

[3] = compound: CC[C@H](C)N1C=C(C2=C(C=C(C=C21)C3=CN=C(C=C3)N4CCNCC4)C(=O)NCC5=C(C=C(NC5=O)C)C)C [GSK126] + O=C(CCCCCCC(=O)Nc1ccccc1)NO [Vorinostat] (partner 1 µM)
Summary of the method: as §1

[4] = compound: NS(=O)(=O)OC[C@@H]1C[C@@H](n2ccc3c(N[C@H]4CCc5ccccc54)ncnc32)C[C@@H]1O [MLN4924] + Cc1nc(Nc2ncc(C(=O)Nc3c(C)cccc3Cl)s2)cc(N2CCN(CCO)CC2)n1 [Dasatinib] (partner 0.075 µM)
Summary of the method: as §1

Cell Line	relative viability ([1]; first compound 0.08 µM)	relative viability ([1]; first compound 0.253 µM)	relative viability ([1]; first compound 0.8 µM)	relative viability ([1]; first compound 2.53 µM)	relative viability ([1]; first compound 8 µM)	relative viability ([2]; first compound 0.08 µM)	relative viability ([2]; first compound 0.253 µM)	relative viability ([2]; first compound 0.8 µM)	relative viability ([2]; first compound 2.53 µM)	relative viability ([2]; first compound 8 µM)	relative viability ([3]; first compound 0.08 µM)	relative viability ([3]; first compound 0.253 µM)	relative viability ([3]; first compound 0.8 µM)	relative viability ([3]; first compound 2.53 µM)	relative viability ([3]; first compound 8 µM)	relative viability ([4]; first compound 0.04 µM)	relative viability ([4]; first compound 0.1265 µM)	relative viability ([4]; first compound 0.4 µM)	relative viability ([4]; first compound 1.265 µM)	relative viability ([4]; first compound 4 µM)
HCC-15	0.93	0.93	0.84	0.761	0.707	0.425	0.409	0.386	0.382	0.359	0.887	0.756	0.843	0.816	0.714	0.498	0.183	0.132	0.0695	0.0802
NCI-H3122	0.773	0.862	0.869	0.762	0.764	0.198	0.186	0.216	0.22	0.245	1.14	1.15	0.933	1.06	1.18	0.148	0.487	0.147	0.056	0.071
201T	1.07	1.07	1.04	1.01	0.926	0.698	0.693	0.726	0.746	0.726	1.05	1.04	0.954	1.13	1.15	0.69	0.615	0.598	0.319	0.318
RERF-LC-KJ	0.887	0.806	0.81	0.883	0.594	0.902	0.981	0.733	0.841	0.825	0.747	0.791	0.654	0.716	0.827	0.717	0.661	0.266	0.206	0.242
NCI-H1734	0.647	0.757	0.632	0.67	0.589	0.801	0.63	0.662	0.731	0.766	0.906	0.816	0.804	0.766	0.769	0.636	0.588	0.305	0.0902	0.102
NCI-H1651	0.846	1.1	0.907	0.876	0.573	0.794	0.86	0.811	0.844	0.866	0.614	0.548	0.545	0.6	0.55	0.411	0.473	0.431	0.167	0.116
PC-14	0.992	0.838	0.875	0.883	0.711	0.912	0.694	0.708	0.662	0.699	0.768	0.732	0.623	0.745	0.692	0.304	0.294	0.195	0.0356	0.0313
NCI-H358	1.14	0.881	0.845	0.824	0.671	0.15	0.141	0.158	0.12	0.138	0.767	0.708	0.644	0.68	0.672	0.211	0.31	0.25	0.113	0.0832
NCI-H1915	1.05	1.06	0.966	0.893	0.675	0.344	0.29	0.313	0.315	0.332	0.602	0.474	0.542	0.5	0.54	0.352	0.353	0.318	0.222	0.177
NCI-H1975	0.669	0.655	0.728	0.598	0.666	0.377	0.31	0.362	0.369	0.352	0.708	0.676	0.741	0.645	0.67	0.39	0.385	0.483	0.678	0.324
BEN	1.11	1.04	0.891	0.798	0.909	1.05	0.736	1.02	1.26	0.953	0.658	0.528	0.503	0.617	0.617	0.309	0.252	0.198	0.155	0.146
EPLC-272H	0.966	0.931	0.936	0.986	0.843	0.353	0.252	0.279	0.312	0.258	0.346	0.342	0.344	0.29	0.511	0.499	0.448	0.071	0.108	0.11
NCI-H2228	0.813	0.687	0.561	0.593	0.566	0.677	0.502	0.407	0.606	0.513	0.343	0.725	0.644	0.616	0.923	0.524	0.638	0.14	0.107	0.11
NCI-H661	0.567	0.66	0.703	0.595	0.648	0.632	0.548	0.523	0.596	0.687	0.779	0.746	0.734	0.716	0.69	1	1.05	0.556	0.256	0.362
LU99A	0.623	0.584	0.493	0.522	0.365	0.631	0.519	0.547	0.552	0.546	0.506	0.484	0.443	0.404	0.561	0.507	0.485	0.321	0.132	0.16
